Assay results reported in paper PMC7995547, “ω‐Imidazolyl‐alkyl derivatives as new preclinical drug candidates for treating non‐alcoholic steatohepatitis” (Physiological Reports, 2021).
Several values for one entry are separate records, joined by “and”; a condition that tells them apart may be missing. Identical values can stand only once.

Assays:
CYP2E1 = system: CYP2E1; set-up: method as in Diesinger et al., 2020; conditions: in vitro experiments; ref Diesinger et al., 2020; cited from earlier work
[1] = system: HFD‐induced NASH rat model (liver); experiment: Liver histopathology, semi‐quantitative evaluation, NASH rat model; assay type: in vivo, Wistar rats; conditions: H.E.‐stained liver slices
Method: (§1) Studies were done using Wistar rats of female sex by the Institute of Pharmacology and Biochemistry at Minsk. The animals were 80–90 days old and weighed 180–200 g. They had free access to a liquid Lieber‐DeCarli (LDC) diet (Lieber et al., 2004) and were housed under standard conditions meaning a 12‐h light/dark cycle at 22 ± 2°C and 55 ± 5% humidity.
(§2) Group 1 was designated as the first control group; it was fed a normal standard solid diet. Group 2, as the second control group, was fed a standard amount of fat as a part of the liquid “physiological,” non‐high fat LDC diet. All other groups received the liquid ‘disease‐causing’ LDC diet (Table 2), including a high content of unsaturated fatty acids.
(§3) Both LDC diets were in a liquid form as produced by ssniff‐Spezialdiäten GmbH, Soest (Germany). The feed was provided over the entire experimental period of 16 weeks; however, the corresponding experimental substances were only administered in the last four weeks (Figure 3).
(§4) The experimental substances I‐ol, I‐an, and UDCA were dissolved in a 0.8% aqueous HPMC gel to obtain the following concentrations: (1) I‐ol at 0.4, 4, and 40 mg/kg body weight (b.w.), (2) I‐an at 0.4, 4, and 40 mg/kg b.w., and (3) UDCA at 40 mg/kg b.w. The Group‐2 and −3 rats received only HPMC as placebo. Each test encompassed 6–8 rats that were put up in a separate cage. The rats were fed ad libitum, and their intake per cage was controlled daily. In order to ensure an exact daily reproducible dosage, the experimental substances or only HPMC was administered intragastrically via oral gavage. Basically, the drug therapy of a chronic disease is the more efficient the higher the adherence of the affected patients. This is generally higher with peroral administration than with any other form of application. At the end of the experiment, the animals were sacrificed under fasting conditions, by aorta dissection and exsanguination, after anesthetizing with an intraperitoneal injection of 5% pentobarbital solution.
Pieces of liver tissue measuring 1 × 2 × 0.5 mm were chosen randomly and fixed for a week in the mixture of 1% formaldehyde and 1% paraformaldehyde in Sorensen's phosphate buffer (pH 7.4) (Morphisto GmbH, Frankfurt/Main). After this the pieces were kept in 2.5% glutaraldehyde in same buffer, rinsed and then post‐fixed in 1% solution of osmium tetroxide on the Sorensen's phosphate buffer (pH 7.4). After fixation, the liver samples were dehydrated and embedded in the pre‐polymerized mixture of methyl methacrylate and butyl methacrylate (1:4, v/v) containing 2,4‐dichlorbenzoyl peroxide as a catalyst.
[…] A semi‐quantitative evaluation of the sections was performed according to the procedure described by Koppe et al. (Koppe et al., 2004).

[2] = system: HFD‐induced NASH rat model (serum); experiment: Liver enzyme activities and bilirubin in serum, NASH rat model; assay type: in vivo, Wistar rats
Method: as §1, §2, §3, §4
(§5) The activities of the liver enzymes aspartate aminotransferase (AST), alanine aminotransferase (ALT), alkaline phosphatase (AP), and γ‐glutamyl transferase (γ‐GT) as well as bilirubin and triglyceride levels in the serum were determined as described by the instructions of BIO‐LA‐tests kit (Erba Lachema, Brno, Czech Republic).

[3] = system: HFD‐induced NASH rat model (serum); experiment: Adipocytokines and glucose metabolism in serum, NASH rat model; assay type: in vivo, Wistar rats
Method: as §1, §2, §3, §4
The concentrations of adiponectin and TNFα were measured using ELISA kits sold by BioCat GmbH (Heidelberg, Germany), whereas the one for determining leptin level was procured from BioVendor Laboratory Medicine Inc. (Brno, Czech Republic). Insulin concentration was determined using the radioimmunoassay kit RIO‐insulin‐PG‐J125 (IBOCH, Minsk, Belarus). Serum glucose level was determined based on the “Accu‐Check Active blood glucose” monitoring method developed by Roche‐Diagnostics.

[4] = system: HFD‐induced NASH rat model (liver); experiment: Area of connective tissue in the liver (Mallory‐Azan staining), NASH rat model; assay type: in vivo, Wistar rats; conditions: compound overall
Method: as §1, §2, §3, §4
Liver tissue sections were subject to the Mallory‐Azan (Heidenhain Azan) staining method for visualizing the connective tissues. This method was a modification of the original Mallory staining protocol, wherein azocarmin with a mixture of aniline blue and orange G was used. In this method, the collagen tissue and basophilic granules turn blue, the muscle tissue and acidophilic granules turn orange to red, and the cell nuclei and cytoplasm turn red. Elastic fibers remain unstained; however, they might turn yellow or pink. The proportion of positively stained liver tissue to the total area of the histological slide was determined quantitatively.

[5] = system: HFD‐induced NASH rat model (liver and serum); experiment: End products of fat metabolism (liver and serum lipids), NASH rat model; assay type: in vivo, Wistar rats
Method: as §1, §2, §3, §4, §5
Extraction of lipids was performed using a solvent composed of chloroform and methanol (2:1 v/v). Thin‐layer chromatography (TLC) was used to separate off neutral lipids and phospholipids. Silicagel G 60 plates (0.25 mm thick) were used. The lipids were separated by ascending chromatography in a system composed of hexane:diethylic ether:glacial acetic acid (73:25:2; v/v/v). They were visualized by iodine vapor and the spots corresponding to triglycerides and cholesterol were scraped off and eluted with methanol for spectrophotometric evaluation. Triglyceride and cholesterol levels were determined using the BIO‐LA‐test kit (Erba Lachema, Brno, Czech Republic). Phospholipid concentration was determined by measuring the levels of phosphomolybdate using an inorganic phosphate reagent containing molybdate (Findlay & Evans, 1987). VLDL level was determined by using the manganese precipitation method (Burstein & Scholnick, 1973) after partial modification (Hirano et al., 2003).

[6] = average over doses, UDCA 40 mg/kg b.w.
[7] = serum, average over doses (I‐ol, I‐an), UDCA 40 mg/kg b.w.
[8] = serum, highest concentration (40 mg/kg b.w.)
[9] = serum, number: highest concentration (40 mg/kg b.w.), words: compound overall
[10] = average over doses (I‐ol, I‐an), UDCA 40 mg/kg b.w.

CCCCCCCCCCCCn1ccnc1 [I‐an, 1‐imidazolyldodecane]
Inhibition of CYP2E1 (in words) (CYP2E1): strong inhibitors of CYP2E1
Balooning score ([1]; 0.4 mg/kg b.w. + HFD): 0–1
Inflammation score ([1]; 0.4 mg/kg b.w. + HFD): 1 (1, <5 signs of inflammation)
Steatosis score ([1]; 0.4 mg/kg b.w. + HFD): 0–1
Balooning score ([1]; 4.0 mg/kg b.w. + HFD): 1 (1, ≤25%)
Inflammation score ([1]; 4.0 mg/kg b.w. + HFD): 1 (1, <5 signs of inflammation)
Steatosis score ([1]; 4.0 mg/kg b.w. + HFD): 0–1
Balooning score ([1]; 40.0 mg/kg b.w. + HFD): 0–1
Inflammation score ([1]; 40.0 mg/kg b.w. + HFD): 1 (1, <5 signs of inflammation)
Steatosis score ([1]; 40.0 mg/kg b.w. + HFD): 0–1
Dose dependence of the effect on ALT activity ([2]; 0.4, 4, 40 mg/kg b.w.): weak, significant (p < 0.05), linear, dose‐dependent effect
Dose dependence of the effect on AP activity ([2]; 0.4, 4, 40 mg/kg b.w.): weak but significant (p < 0.05), linear, dose‐dependent effect
Dose dependence of the effect on AST activity ([2]; 0.4, 4, 40 mg/kg b.w.): moderate, very highly significant (p < 0.001), linear, dose‐dependent effect
Decrease in serum bilirubin level compared to disease group [2, 6]: no therapeutic effect
Decrease in γ‐GT enzymatic activity compared to disease group [2, 7]: 35%
Reduction of the effect of HFD on γ‐GT activity [2, 7]: 86%
Reduction of the effect of HFD on AP activity [2, 8]: 89%
Reduction of the effect of HFD on AST activity [2, 8]: 92% and 90%
Decrease in ALT enzymatic activity compared to disease group ([2]; serum, highest concentrations (40 mg/kg b.w.)): 20%
Reduction of the effect of HFD on ALT activity ([2]; serum, highest concentrations (40 mg/kg b.w.), b87: dose not stated): 66% and ~70%
Decrease in AP enzymatic activity compared to disease group [2, 9]: 21%
Decrease in AST enzymatic activity compared to disease group [2, 9]: 21%
Dose dependence of the effect on serum adiponectin ([3]; 0.4, 4, 40 mg/kg b.w.): weak, significant (p < 0.05) linear dose‐dependent effect
Dose dependence of the effect on serum leptin ([3]; 0.4, 4, 40 mg/kg b.w.): weak yet significant (p < 0.05) linear dose‐dependent effect
Decrease in serum TNF‐α level compared to disease group [3, 10]: not significant
Decrease in serum leptin compared to disease group [3, 10]: 18%
Increase in serum adiponectin compared to disease group [3, 10]: 31%
Reduction of the effect of HFD on serum adiponectin ([3]; average over doses (I‐ol, I‐an), UDCA 40 mg/kg b.w. (elevated the concentration by)): 38%
Reduction of the effect of HFD on serum leptin ([3]; average over doses (I‐ol, I‐an), UDCA 40 mg/kg b.w. (reduced leptin concentration)): 62%
Serum leptin above the reference value of control group 1 ([3]; highest concentrations (40 mg/kg b.w.)): 1%
Effect on area of connective tissue in the liver (in words) [4]: no therapeutic effect
Dose dependence of the effect on liver phospholipid levels ([5]; 0.4, 4, 40 mg/kg b.w.): strong and very highly significant (p < 0.001), linear, dose‐dependent effect
Reduction of the effect of HFD on liver phospholipid levels ([5]; average over doses): 53%
Serum triglyceride level below the reference value of group 1 ([5]; average over doses): 4%
Decrease in liver triglyceride levels compared to disease group [5, 10]: 15%
Reduction of the effect of HFD on liver triglyceride levels [5, 10]: 33%
Decrease in liver phospholipid levels compared to disease group [5, 6]: 13%
Decrease in serum LDL cholesterol [5, 6]: non‐significant trend toward lowering the serum LDL level
Decrease in serum triglyceride levels compared to disease group [5, 6]: 12%
Liver phospholipid level above the reference value of group 1 ([5]; highest concentration (40 mg/kg b.w.)): 3%
Liver cholesterol level below the reference value of group 1 ([5]; low dose (0.4 mg/kg b.w.)): 8%
Reduction of liver cholesterol level compared to disease group ([5]; low dose (0.4 mg/kg b.w.)): 18%
